Experiments:
[1] = system: Ba/F3 cells expressing FLT3 D835H/Y; assay: MTT viability assay; format: cell-based; details: Mus musculus, BaF3, read-out: IC50 values, range
Method: Drug treatments were carried out for 72 hours. Details are provided in the Supplemental Methods.

GCK = target: T1, GCK (Homo sapiens, UniProt Q12851); assay: Kinase assay by Reaction Biology; format: biochemical; parameters: purchased Eurofins DiscoverX
T1 sequence (Q12851 1-820): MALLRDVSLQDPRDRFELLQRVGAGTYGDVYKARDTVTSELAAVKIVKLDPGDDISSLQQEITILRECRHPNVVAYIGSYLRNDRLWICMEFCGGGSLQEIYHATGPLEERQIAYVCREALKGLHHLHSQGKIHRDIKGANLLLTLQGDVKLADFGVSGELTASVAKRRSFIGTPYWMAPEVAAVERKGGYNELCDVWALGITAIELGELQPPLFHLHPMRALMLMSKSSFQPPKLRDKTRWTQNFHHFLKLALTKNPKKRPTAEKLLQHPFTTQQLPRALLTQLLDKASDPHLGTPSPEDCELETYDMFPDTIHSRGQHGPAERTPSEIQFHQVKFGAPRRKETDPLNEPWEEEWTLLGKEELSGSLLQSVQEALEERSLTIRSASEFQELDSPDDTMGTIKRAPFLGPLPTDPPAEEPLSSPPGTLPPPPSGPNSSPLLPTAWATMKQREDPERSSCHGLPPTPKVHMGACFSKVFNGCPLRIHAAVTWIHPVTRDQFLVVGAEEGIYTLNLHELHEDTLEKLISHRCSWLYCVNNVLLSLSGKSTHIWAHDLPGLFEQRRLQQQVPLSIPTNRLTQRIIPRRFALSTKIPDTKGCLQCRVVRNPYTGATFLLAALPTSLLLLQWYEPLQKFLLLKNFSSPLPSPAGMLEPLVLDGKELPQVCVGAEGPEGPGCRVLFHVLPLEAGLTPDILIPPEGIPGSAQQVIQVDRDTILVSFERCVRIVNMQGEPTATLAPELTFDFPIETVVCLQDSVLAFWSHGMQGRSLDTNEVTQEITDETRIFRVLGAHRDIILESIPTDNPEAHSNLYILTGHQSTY

MAPKAPK3 = MAPKAPK3 (Homo sapiens, UniProt Q16644); assay: KiNativ, OCI cells live cell; format: cell-based; details: 2 h, labeling site ATP Loop, peptide […]
Chain of MAPKAPK3 (Q16644 whole entry): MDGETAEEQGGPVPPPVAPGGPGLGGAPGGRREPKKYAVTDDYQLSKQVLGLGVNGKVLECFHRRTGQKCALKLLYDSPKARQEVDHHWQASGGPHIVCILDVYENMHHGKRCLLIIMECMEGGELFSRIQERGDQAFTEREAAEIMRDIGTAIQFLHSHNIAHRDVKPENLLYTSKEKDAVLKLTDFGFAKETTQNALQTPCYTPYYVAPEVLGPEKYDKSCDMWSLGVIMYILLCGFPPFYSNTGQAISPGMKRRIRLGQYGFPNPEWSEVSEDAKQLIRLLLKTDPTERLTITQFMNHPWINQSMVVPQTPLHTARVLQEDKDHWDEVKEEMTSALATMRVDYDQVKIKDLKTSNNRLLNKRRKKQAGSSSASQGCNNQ

CDK6 = CDK6 (Homo sapiens, UniProt Q00534); assay: KiNativ, OCI cells live cell; format: cell-based; details: 2 h, labeling site Lys2, peptide […]
Chain of CDK6 (Q00534 whole entry): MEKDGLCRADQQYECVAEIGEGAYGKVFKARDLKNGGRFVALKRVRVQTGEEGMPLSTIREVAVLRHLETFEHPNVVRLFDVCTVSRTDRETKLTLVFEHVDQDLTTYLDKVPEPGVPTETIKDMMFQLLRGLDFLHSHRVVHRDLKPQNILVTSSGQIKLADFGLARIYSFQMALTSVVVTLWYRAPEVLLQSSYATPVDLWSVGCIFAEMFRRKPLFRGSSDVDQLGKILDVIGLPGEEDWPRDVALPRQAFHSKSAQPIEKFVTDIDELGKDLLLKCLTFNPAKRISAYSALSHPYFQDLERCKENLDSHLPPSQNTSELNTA

IKKb = target: T2, IKKb (Homo sapiens, UniProt O14920); assay: KiNativ, OCI cells live cell; format: cell-based; details: 2 h
T2 sequence (O14920 1-756): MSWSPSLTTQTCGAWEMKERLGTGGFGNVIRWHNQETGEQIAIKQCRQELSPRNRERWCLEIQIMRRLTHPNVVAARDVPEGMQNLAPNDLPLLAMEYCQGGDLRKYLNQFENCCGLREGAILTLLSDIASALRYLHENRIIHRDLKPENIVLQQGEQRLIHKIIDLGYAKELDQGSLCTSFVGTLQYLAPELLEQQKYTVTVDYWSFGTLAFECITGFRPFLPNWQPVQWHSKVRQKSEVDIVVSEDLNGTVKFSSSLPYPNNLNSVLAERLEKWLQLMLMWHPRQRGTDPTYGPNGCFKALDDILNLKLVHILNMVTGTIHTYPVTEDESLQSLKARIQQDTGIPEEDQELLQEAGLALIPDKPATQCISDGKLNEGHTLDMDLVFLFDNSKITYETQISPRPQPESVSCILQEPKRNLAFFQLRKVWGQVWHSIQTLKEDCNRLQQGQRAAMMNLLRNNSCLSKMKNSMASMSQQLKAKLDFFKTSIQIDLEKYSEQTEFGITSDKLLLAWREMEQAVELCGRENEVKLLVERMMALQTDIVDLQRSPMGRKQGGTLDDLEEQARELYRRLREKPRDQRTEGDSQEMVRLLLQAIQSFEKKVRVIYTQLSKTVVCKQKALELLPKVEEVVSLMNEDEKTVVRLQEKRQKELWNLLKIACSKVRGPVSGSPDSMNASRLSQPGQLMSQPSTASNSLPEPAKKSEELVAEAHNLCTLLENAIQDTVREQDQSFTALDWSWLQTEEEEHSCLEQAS

ILK = target: T3, ILK (Homo sapiens, UniProt Q13418); assay: KiNativ, OCI cells live cell; format: cell-based; details: 2 h
T3 sequence (Q13418 1-452): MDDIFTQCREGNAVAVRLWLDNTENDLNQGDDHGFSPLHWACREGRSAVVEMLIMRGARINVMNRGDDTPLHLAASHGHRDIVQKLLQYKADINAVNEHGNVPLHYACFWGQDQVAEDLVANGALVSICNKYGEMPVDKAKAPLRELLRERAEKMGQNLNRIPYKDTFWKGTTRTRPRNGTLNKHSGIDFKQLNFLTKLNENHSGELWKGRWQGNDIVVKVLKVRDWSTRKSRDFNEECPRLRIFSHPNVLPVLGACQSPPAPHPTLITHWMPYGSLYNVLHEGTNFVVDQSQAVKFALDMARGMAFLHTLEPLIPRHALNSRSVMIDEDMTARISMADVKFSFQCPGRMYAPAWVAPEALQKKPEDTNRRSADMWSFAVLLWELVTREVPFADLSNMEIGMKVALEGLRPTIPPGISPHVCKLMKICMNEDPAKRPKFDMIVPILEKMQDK

AurB = AurB (Homo sapiens, UniProt Q96GD4); assay: KiNativ, OCI cells live cell; format: cell-based; details: 2 h, labeling site Lys1, peptide […]
Chain of AurB (Q96GD4 whole entry): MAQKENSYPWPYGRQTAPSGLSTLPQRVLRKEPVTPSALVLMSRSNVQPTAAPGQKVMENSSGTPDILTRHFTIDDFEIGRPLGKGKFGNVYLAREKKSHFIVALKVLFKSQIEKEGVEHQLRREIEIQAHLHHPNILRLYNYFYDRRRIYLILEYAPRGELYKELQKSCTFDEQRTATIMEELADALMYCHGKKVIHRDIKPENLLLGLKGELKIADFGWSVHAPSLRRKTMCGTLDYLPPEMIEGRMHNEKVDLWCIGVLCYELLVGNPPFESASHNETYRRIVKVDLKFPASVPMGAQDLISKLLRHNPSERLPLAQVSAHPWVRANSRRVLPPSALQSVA

TEC = TEC (Homo sapiens, UniProt P42680); assay: KiNativ, OCI cells live cell; format: cell-based; details: 2 h, labeling site Activation Loop, peptide […]
Chain of TEC (P42680 whole entry): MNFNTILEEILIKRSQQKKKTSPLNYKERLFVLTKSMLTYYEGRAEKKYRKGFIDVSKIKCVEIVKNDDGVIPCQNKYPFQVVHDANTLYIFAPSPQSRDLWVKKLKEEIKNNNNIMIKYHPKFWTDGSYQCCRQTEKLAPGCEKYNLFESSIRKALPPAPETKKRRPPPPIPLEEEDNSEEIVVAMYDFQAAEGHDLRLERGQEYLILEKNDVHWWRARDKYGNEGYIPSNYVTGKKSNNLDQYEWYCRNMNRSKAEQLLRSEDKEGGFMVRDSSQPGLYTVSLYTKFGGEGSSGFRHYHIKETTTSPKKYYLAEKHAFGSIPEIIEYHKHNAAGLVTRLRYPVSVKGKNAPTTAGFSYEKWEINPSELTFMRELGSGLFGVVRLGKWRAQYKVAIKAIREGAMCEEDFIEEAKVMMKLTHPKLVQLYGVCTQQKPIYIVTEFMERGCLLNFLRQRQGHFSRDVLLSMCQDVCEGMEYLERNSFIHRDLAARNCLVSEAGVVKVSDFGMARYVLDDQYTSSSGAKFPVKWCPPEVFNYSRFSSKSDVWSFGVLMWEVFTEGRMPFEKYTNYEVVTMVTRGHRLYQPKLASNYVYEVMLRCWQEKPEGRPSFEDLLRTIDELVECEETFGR

NEK3 = NEK3 (Homo sapiens, UniProt P51956); assay: KiNativ, OCI cells live cell; format: cell-based; details: 2 h, labeling site Activation Loop, peptide […]
Chain of NEK3 (P51956 whole entry): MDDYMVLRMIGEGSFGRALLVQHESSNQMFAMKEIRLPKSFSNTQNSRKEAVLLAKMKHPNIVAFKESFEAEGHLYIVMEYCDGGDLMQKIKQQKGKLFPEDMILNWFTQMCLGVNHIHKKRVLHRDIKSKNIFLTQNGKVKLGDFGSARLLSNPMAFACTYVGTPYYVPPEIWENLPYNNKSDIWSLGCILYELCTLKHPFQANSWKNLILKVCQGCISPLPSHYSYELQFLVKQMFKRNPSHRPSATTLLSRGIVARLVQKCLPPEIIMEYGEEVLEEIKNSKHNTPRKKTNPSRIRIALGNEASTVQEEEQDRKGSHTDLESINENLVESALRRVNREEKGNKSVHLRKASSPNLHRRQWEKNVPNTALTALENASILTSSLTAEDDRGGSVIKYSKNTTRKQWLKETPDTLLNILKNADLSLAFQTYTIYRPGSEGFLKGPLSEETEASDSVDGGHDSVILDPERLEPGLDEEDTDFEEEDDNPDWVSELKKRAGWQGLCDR

RAF1 = RAF1 (Homo sapiens, UniProt P04049); assay: KiNativ, OCI cells live cell; format: cell-based; details: 2 h, labeling site Lys2, peptide […]
Chain of RAF1 (P04049 whole entry): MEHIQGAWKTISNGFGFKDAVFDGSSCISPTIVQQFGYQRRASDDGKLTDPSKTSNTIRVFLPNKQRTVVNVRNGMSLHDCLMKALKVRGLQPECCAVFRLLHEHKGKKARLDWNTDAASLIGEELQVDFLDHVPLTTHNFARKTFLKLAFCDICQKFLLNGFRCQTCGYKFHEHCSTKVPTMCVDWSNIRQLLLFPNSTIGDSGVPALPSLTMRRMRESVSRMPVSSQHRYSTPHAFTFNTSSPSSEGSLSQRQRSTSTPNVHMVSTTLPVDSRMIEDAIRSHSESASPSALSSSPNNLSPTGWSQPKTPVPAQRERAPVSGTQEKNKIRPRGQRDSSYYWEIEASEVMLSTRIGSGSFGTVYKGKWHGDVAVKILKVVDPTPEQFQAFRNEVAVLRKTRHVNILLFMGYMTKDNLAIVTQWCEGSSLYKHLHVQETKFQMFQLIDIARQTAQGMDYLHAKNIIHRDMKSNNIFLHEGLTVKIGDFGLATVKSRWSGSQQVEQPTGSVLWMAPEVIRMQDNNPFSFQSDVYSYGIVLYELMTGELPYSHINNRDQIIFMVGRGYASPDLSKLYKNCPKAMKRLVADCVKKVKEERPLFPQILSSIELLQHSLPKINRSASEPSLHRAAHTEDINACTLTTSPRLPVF

IRE1 = IRE1 (Homo sapiens, UniProt O75460); assay: KiNativ, OCI cells live cell; format: cell-based; details: 2 h, labeling site Lys2, peptide […]
Chain of IRE1 (O75460 19-977): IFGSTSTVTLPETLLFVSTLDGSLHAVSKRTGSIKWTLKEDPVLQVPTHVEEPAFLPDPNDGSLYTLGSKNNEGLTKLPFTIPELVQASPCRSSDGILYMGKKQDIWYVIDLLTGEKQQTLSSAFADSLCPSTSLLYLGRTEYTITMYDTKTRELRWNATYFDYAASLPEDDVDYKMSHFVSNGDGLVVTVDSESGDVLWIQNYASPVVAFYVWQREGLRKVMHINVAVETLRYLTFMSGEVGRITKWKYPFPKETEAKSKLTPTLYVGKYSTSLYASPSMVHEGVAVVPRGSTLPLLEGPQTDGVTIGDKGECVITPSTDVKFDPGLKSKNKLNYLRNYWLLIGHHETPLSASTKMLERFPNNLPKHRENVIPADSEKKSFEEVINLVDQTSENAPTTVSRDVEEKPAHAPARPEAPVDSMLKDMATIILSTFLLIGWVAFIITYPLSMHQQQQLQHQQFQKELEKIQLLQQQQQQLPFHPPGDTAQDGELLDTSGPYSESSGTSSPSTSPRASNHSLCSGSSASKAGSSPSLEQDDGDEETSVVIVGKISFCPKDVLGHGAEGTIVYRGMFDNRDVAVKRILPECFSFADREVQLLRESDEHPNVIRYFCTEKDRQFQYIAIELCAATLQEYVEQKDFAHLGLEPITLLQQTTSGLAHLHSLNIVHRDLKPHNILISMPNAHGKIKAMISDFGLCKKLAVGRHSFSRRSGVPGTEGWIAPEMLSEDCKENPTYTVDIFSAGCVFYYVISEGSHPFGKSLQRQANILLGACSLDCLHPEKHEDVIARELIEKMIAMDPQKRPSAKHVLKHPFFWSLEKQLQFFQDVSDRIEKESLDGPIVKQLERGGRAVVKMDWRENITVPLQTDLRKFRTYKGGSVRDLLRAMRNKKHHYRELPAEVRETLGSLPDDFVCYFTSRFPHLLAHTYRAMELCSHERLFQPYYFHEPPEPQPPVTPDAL

AURKA = target: T4, AURKA (Homo sapiens, UniProt O14965); assay: KdELECT binding assay
T4 construct: purchased Eurofins DiscoverX
T4 sequence (O14965 whole entry): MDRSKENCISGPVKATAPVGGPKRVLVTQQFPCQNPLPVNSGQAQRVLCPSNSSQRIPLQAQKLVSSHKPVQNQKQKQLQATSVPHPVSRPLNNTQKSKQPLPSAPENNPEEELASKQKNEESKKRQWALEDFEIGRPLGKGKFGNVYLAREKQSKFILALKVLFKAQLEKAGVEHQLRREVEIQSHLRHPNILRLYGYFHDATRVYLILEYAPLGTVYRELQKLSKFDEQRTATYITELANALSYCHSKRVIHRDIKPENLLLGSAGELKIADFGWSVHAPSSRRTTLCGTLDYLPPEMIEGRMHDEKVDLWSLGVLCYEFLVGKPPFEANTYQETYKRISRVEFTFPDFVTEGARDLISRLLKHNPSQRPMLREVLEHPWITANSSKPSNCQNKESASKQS

IKKa = IKKa (Homo sapiens, UniProt O15111); assay: KiNativ, OCI cells live cell; format: cell-based; details: 2 h, labeling site Lys2, peptide […]
Chain of IKKa (O15111 whole entry): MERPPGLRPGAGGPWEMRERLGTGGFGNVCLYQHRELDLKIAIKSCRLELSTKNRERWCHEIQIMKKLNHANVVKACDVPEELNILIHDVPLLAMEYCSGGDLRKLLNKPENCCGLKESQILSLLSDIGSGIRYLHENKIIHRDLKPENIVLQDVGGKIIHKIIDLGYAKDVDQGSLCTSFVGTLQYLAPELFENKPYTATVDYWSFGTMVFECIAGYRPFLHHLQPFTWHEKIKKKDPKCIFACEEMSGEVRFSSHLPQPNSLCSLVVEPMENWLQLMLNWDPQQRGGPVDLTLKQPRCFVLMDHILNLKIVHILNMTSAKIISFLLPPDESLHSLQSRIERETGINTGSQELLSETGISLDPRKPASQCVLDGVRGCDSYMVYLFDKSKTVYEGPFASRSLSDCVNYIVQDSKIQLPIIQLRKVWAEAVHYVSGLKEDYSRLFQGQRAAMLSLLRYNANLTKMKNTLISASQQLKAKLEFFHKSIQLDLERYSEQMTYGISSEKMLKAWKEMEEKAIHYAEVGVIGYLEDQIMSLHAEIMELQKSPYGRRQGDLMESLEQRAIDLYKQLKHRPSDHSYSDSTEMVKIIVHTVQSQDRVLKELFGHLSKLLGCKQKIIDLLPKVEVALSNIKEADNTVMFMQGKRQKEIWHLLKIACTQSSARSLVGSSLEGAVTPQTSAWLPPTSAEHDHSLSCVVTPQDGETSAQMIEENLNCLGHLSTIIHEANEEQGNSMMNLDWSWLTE

Q: How did the IC50 [1] turn out when `CN1CCN(Cc2ccc(Nc3ncc(Cl)c(Nc4ccccc4S(=O)(=O)N(C)C)n3)cc2)CC1` [TP-0903] was run?
A: 16 to 22 nM

Q: What about the IC50 (GCK) of the same molecule?
A: 2.5 nM

Q: And the inhibition at 0.1 µM (MAPKAPK3)?
A: -28.5%

Q: And the inhibition at 0.1 µM (CDK6)?
A: 74.1%

Q: What about the inhibition at 0.1 µM (IKKb; labeling site Lys1, peptide WHNQETGEQIAIKQCR) of the same molecule?
A: -16%

Q: What about the inhibition at 0.1 µM (IKKb; labeling site Lys2, peptide DLKPENIVLQQGEQR) of the same molecule?
A: 14.6%

Q: And the inhibition at 0.1 µM (ILK; labeling site Lys1, peptide WQGNDIVVKVLK)?
A: -21.7%

Q: And the inhibition at 0.1 µM (ILK; labeling site Protein Kinase Domain, peptide ISMADVKFSFQCPGR)?
A: -42.5%

Q: And the inhibition at 0.1 µM (AurB)?
A: 83%

Q: What about the inhibition at 0.1 µM (TEC) of the same molecule?
A: 31.9%

Q: And the inhibition at 0.1 µM (NEK3)?
A: -11.9%

Q: And the inhibition at 0.1 µM (RAF1)?
A: 7%

Q: And the inhibition at 0.1 µM (IRE1)?
A: 33.5%

Q: And the Kd (AURKA)?
A: < 5 nM

Q: What about the inhibition at 0.1 µM (IKKa) of the same molecule?
A: 2.6%

From PMC7714403 (JCI Insight, 2020)
